{"source": "paper PMC5413351", "about": "“Structural basis of protein translocation by the Vps4-Vta1 AAA ATPase” (eLife, 2017)", "biological_target": "T1, Vps4^101-437-Hcp1 (UniProt P52917+Q9I747)", "T1 construct": "6xHis (TEV-cleavable) (N, cleaved yes); Pseudomonas aeruginosa Hcp1 fusion partner (candidate entry Q9I747, HCP1_PSEAE); made in house; host or cells: E. coli BL21(DE3)RIL", "T1 sequence (P52917+Q9I747 with tags, fused parts or gaps)": "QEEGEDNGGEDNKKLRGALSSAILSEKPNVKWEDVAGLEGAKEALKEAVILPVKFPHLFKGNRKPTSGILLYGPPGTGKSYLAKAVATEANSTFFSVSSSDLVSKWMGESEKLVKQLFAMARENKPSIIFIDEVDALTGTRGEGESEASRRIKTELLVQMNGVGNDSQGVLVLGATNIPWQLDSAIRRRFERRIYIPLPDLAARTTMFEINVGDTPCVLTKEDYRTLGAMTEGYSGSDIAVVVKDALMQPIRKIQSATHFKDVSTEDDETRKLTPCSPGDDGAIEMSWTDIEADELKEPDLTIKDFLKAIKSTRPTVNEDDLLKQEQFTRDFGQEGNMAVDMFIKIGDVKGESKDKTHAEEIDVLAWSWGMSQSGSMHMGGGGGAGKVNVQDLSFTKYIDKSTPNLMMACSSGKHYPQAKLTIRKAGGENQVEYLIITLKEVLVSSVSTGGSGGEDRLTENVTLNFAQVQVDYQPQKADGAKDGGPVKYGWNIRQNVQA", "T1 sequence (Q06263 280-330 partner limits assumed)": "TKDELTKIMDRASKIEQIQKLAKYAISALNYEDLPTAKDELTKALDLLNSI", "assay": "Fluorescence polarization binding of fluorescently labeled ESCRT-III peptide to Vps4^101-437-Hcp1", "set-up": "species or system S. cerevisiae", "conditions": "2:1 Vta1^VSL:Vps4 subunits, 1 mM ADP·BeFx, 1 nM fluorescent peptide, 20 mM HEPES pH 7.4, 100 mM NaCl, 10 mM MgCl2, 1 mM DTT, room temperature; per Vps4 hexamer; global fit of four independent experiments", "description": "Fluorescence polarization assay for ESCRT-III peptide binding\nWhen equilibrium was reached, parallel and perpendicular fluorescence intensities were measured on a Biotek Synergy Neo HTS microplate reader using an excitation wavelength of 485 nm and an emission wavelength of 528 nm.", "note": "pKd: −log10 of the molar value. Where a SMILES comes first, the peptide text is derived from it."}
{"smiles": "CC[C@H](C)[C@H](NC(=O)[C@H](CCC(=O)O)NC(=O)[C@H](CC(=O)O)NC(=O)[C@H](CC(C)C)NC(=O)[C@@H](NC(=O)[C@H](CCCCN)NC(=O)[C@H](CC(N)=O)NC(=O)[C@@H](NC(=O)[C@@H](NC(=O)[C@H](CCC(=O)O)NC(=O)[C@H](CC(=O)O)NC(=O)c1ccc2c(c1)C(=O)OC21c2ccc(O)cc2Oc2cc(O)ccc21)[C@@H](C)CC)C(C)C)C(C)C)C(=O)NCC(=O)N[C@H](C(=O)N[C@@H](CC(=O)O)C(=O)N[C@@H](CC(C)C)C(=O)N[C@@H](CC(N)=O)C(=O)N[C@@H](CO)C(=O)N[C@@H](CCC(N)=O)C(=O)N[C@@H](CC(C)C)C(=O)N[C@@H](CCC(N)=O)C(N)=O)C(C)C", "note": "[Peptide ‘20’] (HELM PEPTIDE1{[O=C1OC2(c3ccc(O)cc3Oc3cc(O)ccc32)c2ccc(C(=O)[*:2])cc21].D.E.I.V.N.K.V.L.D.E.I.G.V.D.L.N.S.Q.L.Q.[am]}$$$$V2.0)", "values": [{"measurement": "pKd", "result": 6.75}]}
